Assay results: PubChem BioAssay (NCI)
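Briefly, cells in 96-well plates were exposed to five compound concentrations for 48 h, and endpoints were estimated by linear interpolation. TGI is the concentration that stops growth completely.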

Tests used:
Test in all cases: DTP human tumour cell line panel, 48 h
HOP-62 NSCLC = tested on: HOP-62 NSCLC
SNB-75 CNS = tested on: SNB-75 CNS
MDA-MB-231 breast = tested on: MDA-MB-231 breast
RPMI-8226 leukemia = tested on: RPMI-8226 leukemia
SNB-19 CNS = tested on: SNB-19 CNS
OVCAR-4 ovarian = tested on: OVCAR-4 ovarian
SF-295 CNS = tested on: SF-295 CNS
SK-MEL-5 melanoma = tested on: SK-MEL-5 melanoma
MDA-MB-435 = tested on: MDA-MB-435
A549 NSCLC = tested on: A549 NSCLC
ACHN renal = tested on: ACHN renal
MALME-3M melanoma = tested on: MALME-3M melanoma
NCI-H226 lung = tested on: NCI-H226 lung
HOP-92 NSCLC = tested on: HOP-92 NSCLC
UO-31 renal = tested on: UO-31 renal
K-562 leukemia = tested on: K-562 leukemia
TK-10 renal = tested on: TK-10 renal
NCI-H23 lung = tested on: NCI-H23 lung
LOX IMVI melanoma = tested on: LOX IMVI melanoma
COLO 205 colon = tested on: COLO 205 colon
OVCAR-8 ovarian = tested on: OVCAR-8 ovarian
BT-549 breast = tested on: BT-549 breast
HS 578T breast = tested on: HS 578T breast
U251 CNS = tested on: U251 CNS
MCF7 breast = tested on: MCF7 breast
KM12 colon = tested on: KM12 colon
SK-MEL-28 melanoma = tested on: SK-MEL-28 melanoma
HCT-116 colon = tested on: HCT-116 colon
CCRF-CEM leukemia = tested on: CCRF-CEM leukemia
T-47D breast = tested on: T-47D breast
EKVX NSCLC = tested on: EKVX NSCLC
NCI-H460 lung = tested on: NCI-H460 lung
HCC-2998 colon = tested on: HCC-2998 colon
SW-620 colon = tested on: SW-620 colon
SR leukemia = tested on: SR leukemia
HT29 colon = tested on: HT29 colon
786-0 renal = tested on: 786-0 renal
UACC-257 melanoma = tested on: UACC-257 melanoma
SN12C renal = tested on: SN12C renal
OVCAR-5 ovarian = tested on: OVCAR-5 ovarian
A498 renal = tested on: A498 renal
SK-OV-3 ovarian = tested on: SK-OV-3 ovarian
M14 melanoma = tested on: M14 melanoma
SK-MEL-2 melanoma = tested on: SK-MEL-2 melanoma
IGROV1 ovarian = tested on: IGROV1 ovarian
PC-3 prostate = tested on: PC-3 prostate
UACC-62 melanoma = tested on: UACC-62 melanoma
RXF 393 renal = tested on: RXF 393 renal
HCT-15 colon = tested on: HCT-15 colon
CAKI-1 renal = tested on: CAKI-1 renal
MDA-N = tested on: MDA-N
DU-145 prostate = tested on: DU-145 prostate
NCI/ADR-RES ovarian = tested on: NCI/ADR-RES ovarian
SF-268 CNS = tested on: SF-268 CNS
OVCAR-3 ovarian = tested on: OVCAR-3 ovarian
NCI-H522 lung = tested on: NCI-H522 lung
MOLT-4 leukemia = tested on: MOLT-4 leukemia
SF-539 CNS = tested on: SF-539 CNS

S=C(NCCc1ccccn1)c1nc[nH]c1C(=S)NCCc1ccccn1
TGI (HOP-62 NSCLC): > 100 µM
TGI (SNB-75 CNS): 83.3 µM
TGI (MDA-MB-231 breast): > 100 µM
TGI (RPMI-8226 leukemia): > 100 µM
TGI (SNB-19 CNS): > 100 µM
TGI (OVCAR-4 ovarian): > 100 µM
TGI (SF-295 CNS): > 100 µM
TGI (SK-MEL-5 melanoma): > 100 µM
TGI (MDA-MB-435): > 100 µM
TGI (A549 NSCLC): > 100 µM
TGI (ACHN renal): > 100 µM
TGI (MALME-3M melanoma): > 100 µM
TGI (NCI-H226 lung): > 100 µM
TGI (HOP-92 NSCLC): > 100 µM
TGI (UO-31 renal): > 100 µM
TGI (K-562 leukemia): > 100 µM
TGI (TK-10 renal): > 100 µM
TGI (NCI-H23 lung): > 100 µM
TGI (LOX IMVI melanoma): 45.5 µM
TGI (COLO 205 colon): > 100 µM
TGI (OVCAR-8 ovarian): 82.4 µM
TGI (BT-549 breast): > 100 µM
TGI (HS 578T breast): 68.1 µM
TGI (U251 CNS): > 100 µM
TGI (MCF7 breast): > 100 µM
TGI (KM12 colon): > 100 µM
TGI (SK-MEL-28 melanoma): > 100 µM
TGI (HCT-116 colon): > 100 µM
TGI (CCRF-CEM leukemia): 81.1 µM
TGI (T-47D breast): 60.6 µM
TGI (EKVX NSCLC): > 100 µM
TGI (NCI-H460 lung): 64.6 µM
TGI (HCC-2998 colon): > 100 µM
TGI (SW-620 colon): > 100 µM
TGI (SR leukemia): > 100 µM
TGI (HT29 colon): > 100 µM
TGI (786-0 renal): > 100 µM
TGI (UACC-257 melanoma): > 100 µM
TGI (SN12C renal): > 100 µM
TGI (OVCAR-5 ovarian): > 100 µM
TGI (A498 renal): > 100 µM
TGI (SK-OV-3 ovarian): > 100 µM
TGI (M14 melanoma): > 100 µM
TGI (SK-MEL-2 melanoma): > 100 µM
TGI (IGROV1 ovarian): > 100 µM
TGI (PC-3 prostate): > 100 µM
TGI (UACC-62 melanoma): 56.2 µM
TGI (RXF 393 renal): 87.9 µM
TGI (HCT-15 colon): > 100 µM
TGI (CAKI-1 renal): > 100 µM
TGI (MDA-N): > 100 µM
TGI (DU-145 prostate): > 100 µM
TGI (NCI/ADR-RES ovarian): 65.1 µM
TGI (SF-268 CNS): > 100 µM
TGI (OVCAR-3 ovarian): > 100 µM

O=C1/C(=C\c2cccc(Oc3ccccc3)c2)S(=O)(=O)C(c2ccccc2)N1c1cc(Cl)ccc1Cl (stereo not given)
TGI (HOP-62 NSCLC): 43.3 µM
TGI (SNB-75 CNS): 69.6 µM
TGI (MDA-MB-231 breast): > 100 µM
TGI (RPMI-8226 leukemia): > 100 µM
TGI (SNB-19 CNS): 35.7 µM
TGI (OVCAR-4 ovarian): > 100 µM
TGI (SF-295 CNS): 33.1 µM
TGI (SK-MEL-5 melanoma): 33.3 µM
TGI (MDA-MB-435): 36.5 µM
TGI (A549 NSCLC): > 100 µM
TGI (ACHN renal): 44.6 µM
TGI (MALME-3M melanoma): 42.4 µM
TGI (HOP-92 NSCLC): 40.4 µM
TGI (UO-31 renal): 39.6 µM
TGI (K-562 leukemia): > 100 µM
TGI (TK-10 renal): 57.3 µM
TGI (NCI-H23 lung): 44.3 µM
TGI (LOX IMVI melanoma): 23.8 µM
TGI (COLO 205 colon): 48.4 µM
TGI (OVCAR-8 ovarian): 32.7 µM
TGI (BT-549 breast): 35.6 µM
TGI (NCI-H522 lung): 40 µM
TGI (HS 578T breast): 88.1 µM
TGI (U251 CNS): > 100 µM
TGI (MCF7 breast): 45.1 µM
TGI (KM12 colon): 76.9 µM
TGI (SK-MEL-28 melanoma): 36.7 µM
TGI (HCT-116 colon): 21.2 µM
TGI (CCRF-CEM leukemia): 40.7 µM
TGI (T-47D breast): 82.4 µM
TGI (EKVX NSCLC): > 100 µM
TGI (NCI-H460 lung): > 100 µM
TGI (HCC-2998 colon): 56.6 µM
TGI (SW-620 colon): 10.8 µM
TGI (SR leukemia): > 100 µM
TGI (HT29 colon): > 100 µM
TGI (786-0 renal): 37.4 µM
TGI (UACC-257 melanoma): 47.9 µM
TGI (SN12C renal): 35 µM
TGI (OVCAR-5 ovarian): 58.6 µM
TGI (A498 renal): > 100 µM
TGI (SK-OV-3 ovarian): 88.3 µM
TGI (M14 melanoma): 44.1 µM
TGI (SK-MEL-2 melanoma): 76.9 µM
TGI (IGROV1 ovarian): 56.2 µM
TGI (PC-3 prostate): > 100 µM
TGI (MOLT-4 leukemia): > 100 µM
TGI (UACC-62 melanoma): 36.7 µM
TGI (RXF 393 renal): 33.8 µM
TGI (SF-539 CNS): > 100 µM
TGI (HCT-15 colon): 74.6 µM
TGI (CAKI-1 renal): > 100 µM
TGI (MDA-N): 28.8 µM
TGI (DU-145 prostate): 76.7 µM
TGI (NCI/ADR-RES ovarian): 94.4 µM
TGI (SF-268 CNS): 42.3 µM
TGI (OVCAR-3 ovarian): 41.9 µM

CN(C)CCNC(=O)c1cccc2c(NC(CCCN=C(N)N)C(=O)O)c3ccccc3[n+](C)c12 (stereo not given)
TGI (HOP-62 NSCLC): > 100 µM
TGI (SNB-75 CNS): > 100 µM
TGI (MDA-MB-231 breast): > 100 µM
TGI (RPMI-8226 leukemia): > 100 µM
TGI (SNB-19 CNS): > 100 µM
TGI (OVCAR-4 ovarian): > 100 µM
TGI (SF-295 CNS): > 100 µM
TGI (SK-MEL-5 melanoma): > 100 µM
TGI (MDA-MB-435): > 100 µM
TGI (A549 NSCLC): > 100 µM
TGI (ACHN renal): > 100 µM
TGI (MALME-3M melanoma): > 100 µM
TGI (NCI-H226 lung): 94.5 µM
TGI (UO-31 renal): > 100 µM
TGI (K-562 leukemia): > 100 µM
TGI (TK-10 renal): > 100 µM
TGI (NCI-H23 lung): > 100 µM
TGI (LOX IMVI melanoma): > 100 µM
TGI (COLO 205 colon): > 100 µM
TGI (OVCAR-8 ovarian): > 100 µM
TGI (BT-549 breast): > 100 µM
TGI (HS 578T breast): > 100 µM
TGI (U251 CNS): > 100 µM
TGI (MCF7 breast): > 100 µM
TGI (KM12 colon): > 100 µM
TGI (SK-MEL-28 melanoma): > 100 µM
TGI (HCT-116 colon): > 100 µM
TGI (T-47D breast): > 100 µM
TGI (EKVX NSCLC): > 100 µM
TGI (NCI-H460 lung): > 100 µM
TGI (HCC-2998 colon): > 100 µM
TGI (SW-620 colon): > 100 µM
TGI (SR leukemia): > 100 µM
TGI (HT29 colon): > 100 µM
TGI (786-0 renal): > 100 µM
TGI (UACC-257 melanoma): > 100 µM
TGI (SN12C renal): > 100 µM
TGI (OVCAR-5 ovarian): > 100 µM
TGI (A498 renal): > 100 µM
TGI (SK-OV-3 ovarian): > 100 µM
TGI (M14 melanoma): > 100 µM
TGI (SK-MEL-2 melanoma): > 100 µM
TGI (IGROV1 ovarian): > 100 µM
TGI (PC-3 prostate): > 100 µM
TGI (MOLT-4 leukemia): > 100 µM
TGI (UACC-62 melanoma): > 100 µM
TGI (SF-539 CNS): > 100 µM
TGI (HCT-15 colon): > 100 µM
TGI (MDA-N): > 100 µM
TGI (DU-145 prostate): > 100 µM
TGI (NCI/ADR-RES ovarian): 80.9 µM
TGI (SF-268 CNS): 92.6 µM
TGI (OVCAR-3 ovarian): > 100 µM
